Values quoted from earlier work as cited in patent US12285521B2, “Pharmaceutical formulation” (Klaria Pharma Holding AB, priority 2016, dated 2025).

Key:
migraine [1] = settings: to be achieved within 60 minutes after dosing
migraine [2] = settings: subcutaneous administration, 6 mg sumatriptan

## CNS(=O)(=O)Cc1ccc2[nH]cc(CCN(C)C)c2c1 [sumatriptan]
After intranasal administration
  time of maximum plasma concentration: 1 to 1.5 h
intranasal, after a 20 mg dose
  mean intranasal bioavailability: 15.8%
  mean maximum concentration: 12.9 ng/mL
Migraine [1]
  plasma level for the most reliable migraine-relieving effect: over 9.44 ng/mL
Migraine [2]
  people with pain reduced from moderate or severe to none within two hours: ~60%
